Measured values taken from patent EP0235408B1, “Pharmaceutical composition and treatment” (THE UNIVERSITY OF TORONTO I[…], priority 1986, dated 1987).
Several values for one entry are separate records, joined by “and”; a condition that tells them apart may be missing. Equal entries are not always repeated. Structures can show the parent of a compound that is named as a salt. Marks after values point to notes of the source that are not given here.

What was measured:
laboratory rats [1] = assay: Drug-induced sleep tracked by electroencephalograph (Example 4); type: in vivo; conditions: for induced sleep (duration): 500 mg per kilogram, EEG
Protocol: The preferred compound according to the invention was administered to labotatory rats, and the sleep of the animals induced by the drug was tracked by means of an electroencephalograph.
Compound ethyl 4-acetoxybutanoate, administered by mouth at a dosage of 250 mg per kilogram body weight induced sleep for 1 hour 28 minutes. At a dosage of 500 mg per kilogram administered in one case by mouth and in another case intraperitoneally, sleep was induced for 4 hours.
The administration to a similar laboratory rat, intraperitoneally, of a dosage of 500 mg per kilogram body weight of GHB induced sleep for only 1 hour 59 minutes, by contrast.

laboratory rats [2] = assay: Effects on sleep and righting time, oral administration (Example 5); type: in vivo; conditions: 10 mM/kg body weight; for TIME SLEPT (mins) AVG 1: average based only on the animals which slept
Protocol: The effects on sleep and- righting time of the oral and in traperitoneal administration of the prior art compound hydroxybutyrate sodium salt (GHB) and 4-acetoxybutanoate (EAB) according to the invention were determined, using groups of labotatory rats.
In a first experiment, GHB was administered at high dosage level (25 mM/Kg or 3 g/kg body weight) orally to three animals. […] The most likely reason is that oral GHB is poorly absorbed.
In a second experiment each of GHB and EAB was given to separate groups of twelve and eleven animals respectively, by oral administration at the same, lower dosage level of 10 mM/kg body weight.

[3] = Toxicity in animal models; conditions: rat, in vivo; laboratory rats; read-out: dose required before a toxic level is reached
Protocol: In tests conducted in animal models, the compound ethyl 4-acetoxybutanoate has evidenced extremely low levels of toxicity. In tests conducted with laboratory rats as reported below, doses as high as 3000 mg per kilogram body weight are required, before a toxic level is reached.

rats = assay: Effects on sleep and righting time, intraperitoneal administration (Example 6); conditions: 5 mM/kg body weight; for TIME SLEPT (mins) AVG 1: average based only on the animals which slept; for TIME SLEPT (mins): individual animals, asterisk = animal could be placed on its back for the time indicated, DNS = did not sleep
[4] = 250 or 500 mg per kilogram, by mouth or intraperitoneally
[5] = individual animals, asterisk = animal could be placed on its back for the time indicated, DNS = did not sleep
[6] = average of all the rats, whether they slept or not

CCOC(=O)CCCOC(C)=O [EAB, ethyl 4-acetoxybutanoate]
ill effects upon waking (laboratory rats [1]; [4]): none of the animals exhibited ill effects | muscle relaxation during sleep (laboratory rats [1]; [4]): the limbs and other body joints were quite flaccid | induced sleep (duration) (laboratory rats [1]; by mouth): 4 h | induced sleep (duration) (laboratory rats [1]; intraperitoneally): 4 h | TIME SLEPT (mins) RANGE (laboratory rats [2]): 103.9 to 331.6 min | animals put to sleep (laboratory rats [2]): put all rats to sleep | animals that could be placed on their backs (laboratory rats [2]): four of eleven could be placed on their backs for more than five hours | ill effects upon waking (laboratory rats [2]): none of the animals exhibited any ill effects | muscle relaxation during sleep (laboratory rats [2]): loose and flaccid | sign of toxicity (laboratory rats [2]): No sign of toxicity was observed | TIME SLEPT (mins) AVG 1 (laboratory rats [2]): 170.57 min | TIME SLEPT (laboratory rats [2]; [5]): 103.90 min and 120.30 min and 106.10 min and 125.75 min and 143.45 min and 120.00 min and 175.80 min | TIME SLEPT (mins) (laboratory rats [2]; [5]): 331.60* mins and 311.50* mins and 317.65* mins and 300.20* mins | NOAEL [3]: ≥ 3000 mg/kg | TIME SLEPT (mins) RANGE (rats): 39.30 to 259.00 min | ill effects upon waking (rats): none of them showed any ill effects | muscle relaxation during sleep (rats): exhibited a high degree of muscle relaxation | TIME SLEPT (mins) AVG 1 (rats): 126.89 min | TIME SLEPT (mins) (rats): 51.70* mins and 39.30* mins and 199.65* mins and 141.70* mins and 70.00* mins and 259.00* mins

O=C(O)CCCO [GHB, hydroxybutyrate sodium salt, reference compound]
TIME SLEPT (mins) RANGE (laboratory rats [2]): 0 to 74.7 min | TIME SLEPT (mins) AVG 1 (laboratory rats [2]): 65.76 min | TIME SLEPT (mins) AVG 2 (laboratory rats [2]; [6]): 27.40 min | TIME SLEPT (laboratory rats [2]; individual animals, asterisk = animal could be placed on its back for the time indicated, DNS = did not sleep, sodium salt): 72.80 min and 64.70 min and 60.80 min and 55.80 min and 74.70 min | TIME SLEPT (mins) RANGE (rats): 0 to 87.35 min | TIME SLEPT (mins) AVG 1 (rats): 72.04 min | TIME SLEPT (mins) AVG 2 (rats; [6]): 48.03 min | TIME SLEPT (mins) (rats; sodium salt): 70.20* mins and 55.40* mins and 75.20* mins and 87.35* mins
